# Reference: patent US9382197B2, “Substituted hydroxamic acids and uses thereof” (Millennium Pharmaceuticals, Inc., priority 2010, dated 2016)
# Target: T1, purified human HDAC6 (Homo sapiens, UniProt Q9UBN7)
# T1 construct: purchased BPS Bioscience 5006
# T1 sequence (Q9UBN7 1-1215): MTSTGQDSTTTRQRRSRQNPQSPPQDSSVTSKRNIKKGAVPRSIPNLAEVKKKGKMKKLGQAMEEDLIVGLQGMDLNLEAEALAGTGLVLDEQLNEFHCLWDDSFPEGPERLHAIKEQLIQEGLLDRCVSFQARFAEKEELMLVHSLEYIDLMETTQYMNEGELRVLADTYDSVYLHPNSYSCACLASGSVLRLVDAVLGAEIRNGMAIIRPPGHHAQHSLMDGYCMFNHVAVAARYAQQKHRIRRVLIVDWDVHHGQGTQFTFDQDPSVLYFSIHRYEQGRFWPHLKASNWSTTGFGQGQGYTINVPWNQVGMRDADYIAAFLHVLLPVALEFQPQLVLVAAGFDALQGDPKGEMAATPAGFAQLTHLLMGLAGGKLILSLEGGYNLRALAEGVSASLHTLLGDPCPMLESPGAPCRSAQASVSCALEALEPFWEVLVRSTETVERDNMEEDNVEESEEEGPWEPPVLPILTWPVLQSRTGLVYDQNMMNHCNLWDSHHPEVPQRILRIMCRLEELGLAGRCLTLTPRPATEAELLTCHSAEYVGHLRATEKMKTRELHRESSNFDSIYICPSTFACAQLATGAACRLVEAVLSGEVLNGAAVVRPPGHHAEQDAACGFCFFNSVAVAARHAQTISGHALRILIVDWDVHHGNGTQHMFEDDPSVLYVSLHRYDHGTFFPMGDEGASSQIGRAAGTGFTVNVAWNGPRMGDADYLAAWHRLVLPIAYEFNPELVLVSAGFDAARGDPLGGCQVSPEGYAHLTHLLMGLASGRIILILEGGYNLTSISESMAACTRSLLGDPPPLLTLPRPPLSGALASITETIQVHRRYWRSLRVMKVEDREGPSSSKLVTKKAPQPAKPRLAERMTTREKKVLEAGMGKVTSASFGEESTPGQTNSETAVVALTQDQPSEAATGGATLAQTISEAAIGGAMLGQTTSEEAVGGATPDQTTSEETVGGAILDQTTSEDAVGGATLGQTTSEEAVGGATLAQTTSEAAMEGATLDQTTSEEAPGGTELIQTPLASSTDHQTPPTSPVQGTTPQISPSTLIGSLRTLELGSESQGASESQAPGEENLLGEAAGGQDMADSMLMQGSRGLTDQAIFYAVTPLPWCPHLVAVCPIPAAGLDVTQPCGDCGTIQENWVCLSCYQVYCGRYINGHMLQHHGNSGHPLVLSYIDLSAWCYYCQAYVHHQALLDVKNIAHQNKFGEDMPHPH
# Experiment: HDAC6 Enzyme Assay
# Type: biochemical
# Details: bin: greater than 500 nM and less than 1 μM (lower bound in nM, upper bound in μM)
# Procedure: To measure the inhibition of HDAC6 activity, purified human HDAC6 (BPS Bioscience; Cat. No. 5006) is incubated with substrate Ac-Arg-Gly-Lys(Ac)-AMC peptide (Bachem Biosciences; Cat. No. 1-1925) for 1 hour at 30° C. in the presence of test compounds or vehicle DMSO control. The reaction is stopped with the HDAC inhibitor trichostatin A (Sigma; Cat. No. T8552) and the amount of Arg-Gly-Lys-AMC generated is quantitated by digestion with trypsin (Sigma; Cat. No. T1426) and subsequent measurement of the amount of AMC released using a fluorescent plate reader (Pherastar; BMG Technologies) set at Ex 340 nm and Em 460 nm. Concentration response curves are generated by calculating the fluorescence increase in test compound-treated samples relative to DMSO-treated controls, and enzyme inhibition (IC50) values are determined from those curves.
row,IC50 [nM],Compound
1,500 to 1000,"CC(C)C(NC(=O)C(c1ccccc1)c1ccccc1)c1ccc(C(=O)NO)cc1 (stereo not shown) [Compound I-204, 4-{1-[(diphenylacetyl)amino]-2-methylpropyl}-N-hydroxybenzamide]"

# Same assay, conditions: bin: greater than 1 μM
row,IC50 [nM],Compound
1,> 1000,"CC(NC(=O)c1cc2oc(-c3ccc(C(F)(F)F)cc3)cc2n1C)c1cccc(C(=O)NO)c1 (stereo not shown) [Compound I-72, N-(1-{3-[(hydroxyamino)carbonyl]phenyl}ethyl)-4-methyl-2-[4-(trifluoromethyl)phenyl]-4H-furo[3,2-b]pyrrole-5-carboxamide]"
2,> 1000,"CC(NC(=O)Cc1cc(C(F)(F)F)cc(C(F)(F)F)c1)c1cccc(C(=O)NO)c1 (stereo not shown) [Compound I-362, 3-[1-({[3,5-bis(trifluoromethyl)phenyl]acetyl}amino)ethyl]-N-hydroxybenzamide]"

# Same assay, conditions: purified human HDAC6, substrate Ac-Arg-Gly-Lys(Ac)-AMC, 1 hour at 30° C.; reported as bins
row,Compound,IC50 [nM]
1,"CCC[C@@H](NC(=O)c1cc(Cl)c(Cl)n1C)c1ccc(C(=O)NO)cc1 [Compound I-245, 4,5-dichloro-N-((1R)-1-{4-[(hydroxyamino)carbonyl]phenyl}butyl)-1-methyl-1H-pyrrole-2-carboxamide]",< 100
2,"CC(C)C(NC(=O)c1ccc2nsnc2c1)c1ccc(C(=O)NO)cc1 (stereo not shown) [Compound I-135, N-(1-{4-[(hydroxyamino)carbonyl]phenyl}-2-methylpropyl)-2,1,3-benzothiadiazole-5-carboxamide]",< 100
3,"C[C@@H](NC(=O)c1cc2oc(-c3ccccc3)cc2n1C)c1ccc(C(=O)NO)cc1 [Compound I-5, N-((1R)-1-{4-[(hydroxyamino)carbonyl]phenyl}ethyl)-4-methyl-2-phenyl-4H-furo[3,2-b]pyrrole-5-carboxamide]",< 100
4,"C[C@@H](NC(=O)c1cc2ccccc2n1C)c1cccc(C(=O)NO)c1 [Compound I-330, N-((1R)-1-{3-[(hydroxyamino)carbonyl]phenyl}ethyl)-1-methyl-1H-indole-2-carboxamide]",100 to 500
5,"CC(NS(=O)(=O)c1cc2ccccc2s1)c1ccc(C(=O)NO)cc1 (stereo not shown) [Compound I-369, 4-{1-[(1-benzothien-2-ylsulfonyl)amino]ethyl}-N-hydroxybenzamide]",100 to 500
6,"CC(NC(=O)c1cc2ccccc2[nH]1)c1cccc(C(=O)NO)c1 (stereo not shown) [Compound I-227, N-(1-{3-[(hydroxyamino)carbonyl]phenyl}ethyl)-1H-indole-2-carboxamide]",100 to 500
7,"C[C@@H](NC(=O)c1cc2ccccc2o1)c1cccc(C(=O)NO)c1 [Compound I-201, N-((1R)-1-{3-[(hydroxyamino)carbonyl]phenyl}ethyl)-1-benzofuran-2-carboxamide]",100 to 500
8,"CC(C)(C)C(NC(=O)c1cnccn1)c1ccc(C(=O)NO)cc1 (stereo not shown) [Compound I-87, N-(1-{4-[(hydroxyamino)carbonyl]phenyl}-2,2-dimethylpropyl)pyrazine-2-carboxamide]",100 to 500
9,"Cc1[nH]c2ccccc2c1CC(=O)NC(c1ccc(C(=O)NO)cc1)C(C)C (stereo not shown) [Compound I-174, N-hydroxy-4-(2-methyl-1-{[(2-methyl-1H-indol-3-yl)acetyl]amino}propyl)benzamide]",100 to 500
10,"CCC[C@@H](NC(=O)c1ccc(OC)cc1)c1ccc(C(=O)NO)cc1 [Compound I-146, N-((1R)-1-{4-[(hydroxyamino)carbonyl]phenyl}butyl)-4-methoxybenzamide]",< 100
11,"CC(C)[C@H](NC(=O)c1cc2ccccc2s1)c1ccc(C(=O)NO)cc1 [Compound I-67, N-((1S)-1-{4-[(hydroxyamino)carbonyl]phenyl}-2-methylpropyl)-1-benzothiophene-2-carboxamide]",100 to 500
12,"CC(NC(=O)Nc1ccc(Oc2ccccc2)cc1)c1ccc(C(=O)NO)cc1 (stereo not shown) [Compound I-20, N-hydroxy-4-[1-({[(4-phenoxyphenyl)amino]carbonyl}amino)ethyl]benzamide]",100 to 500
13,"CC(C)C(NC(=O)c1cc(C(C)(C)C)nn1Cc1ccccc1)c1ccc(C(=O)NO)cc1 (stereo not shown) [Compound I-77, 1-benzyl-3-tert-butyl-N-(1-{4-[(hydroxyamino)carbonyl]phenyl}-2-methylpropyl)-1H-pyrazole-5-carboxamide]",100 to 500
14,"CC(C)[C@@H](NC(=O)N[C@@H](C)c1ccccc1)c1ccc(C(=O)NO)cc1 [Compound I-516, N-hydroxy-4-{(1R)-2-methyl-1-[({[(1S)-1-phenylethyl]amino}carbonyl)amino]propyl}benzamide]",< 100
15,"Cn1nc(C(C)(C)C)cc1C(=O)NC(c1ccc(C(=O)NO)cc1)C(C)(C)C (stereo not shown) [Compound I-291, 3-tert-butyl-N-(1-{4-[(hydroxyamino)carbonyl]phenyl}-2,2-dimethylpropyl)-1-methyl-1H-pyrazole-5-carboxamide]",100 to 500
16,"CC(C)C(NC(=O)c1ccn(C)n1)c1ccc(C(=O)NO)cc1 (stereo not shown) [Compound I-389, N-(1-{4-[(hydroxyamino)carbonyl]phenyl}-2-methylpropyl)-1-methyl-1H-pyrazole-3-carboxamide]",< 100

# Second part, the molecule after the results:
row,IC50 [nM],Compound
1,< 100,"Cc1ccc2[nH]c(C(=O)NC(c3ccc(C(=O)NO)cc3)C(C)(C)C)c(C)c2c1 (stereo not shown) [Compound I-329, N-(1-{4-[(hydroxyamino)carbonyl]phenyl}-2,2-dimethylpropyl)-3,5-dimethyl-1H-indole-2-carboxamide]"
2,< 100,"CC(C)Oc1ccc(C(=O)NC(C)c2ccc(C(=O)NO)cc2)cc1 (stereo not shown) [Compound I-38, N-(1-{4-[(hydroxyamino)carbonyl]phenyl}ethyl)-4-isopropoxybenzamide]"
3,< 100,"CC(NC(=O)Nc1cccc(C(F)(F)F)c1)c1ccc(C(=O)NO)cc1 (stereo not shown) [Compound I-371, N-hydroxy-4-{1-[({[3-(trifluoromethyl)phenyl]amino}carbonyl)amino]ethyl}benzamide]"
4,< 100,"Cc1ccc(F)c(C(=O)NC(C)c2ccc(C(=O)NO)cc2)c1 (stereo not shown) [Compound I-8, 2-fluoro-N-(1-{4-[(hydroxyamino)carbonyl]phenyl}ethyl)-5-methylbenzamide]"
5,< 100,"Cc1cc(C)cc(NC(=O)NC(C)c2ccc(C(=O)NO)cc2)c1 (stereo not shown) [Compound I-397, 4-[1-({[(3,5-dimethylphenyl)amino]carbonyl}amino)ethyl]-N-hydroxybenzamide]"
6,100 to 500,"CC(NS(=O)(=O)c1ccc(F)cc1)c1ccc(C(=O)NO)cc1 (stereo not shown) [Compound I-2, 4-(1-{[(4-fluorophenyl)sulfonyl]amino}ethyl)-N-hydroxybenzamide]"
7,100 to 500,"Cc1ccc(S(=O)(=O)NC(C)c2ccc(C(=O)NO)cc2)c(C)c1 (stereo not shown) [Compound I-78, 4-(1-{[(2,4-dimethylphenyl)sulfonyl]amino}ethyl)-N-hydroxybenzamide]"
8,100 to 500,"Cc1cccc(C)c1NC(=O)NC(C)c1ccc(C(=O)NO)cc1 (stereo not shown) [Compound I-156, 4-[1-({[(2,6-dimethylphenyl)amino]carbonyl}amino)ethyl]-N-hydroxybenzamide]"
9,< 100,"CC(NC(=O)c1cn2cc(Cl)ccc2n1)c1ccc(C(=O)NO)cc1 (stereo not shown) [Compound I-35, 6-chloro-N-(1-{4-[(hydroxyamino)carbonyl]phenyl}ethyl)imidazo[1,2-a]pyridine-2-carboxamide]"
10,< 100,"C[C@H](NC(=O)c1cccn1C)c1ccc(C(=O)NO)cc1 [Compound I-25, N-((1S)-1-{4-[(hydroxyamino)carbonyl]phenyl}ethyl)-1-methyl-1H-pyrrole-2-carboxamide]"
11,< 100,"CC(C)C(NC(=O)c1cc2ccccc2s1)c1ccc(C(=O)NO)cc1 (stereo not shown) [Compound I-94, N-(1-{4-[(hydroxyamino)carbonyl]phenyl}-2-methylpropyl)-1-benzothiophene-2-carboxamide]"
12,< 100,"CC(NC(=O)Nc1ccccc1F)c1ccc(C(=O)NO)cc1 (stereo not shown) [Compound I-74, 4-[1-({[(2-fluorophenyl)amino]carbonyl}amino)ethyl]-N-hydroxybenzamide]"
